Patent US20080146617A1, “Methods of treating inflammatory diseases” (Roche Palo Alto LLC, priority 2006, published 2008)
Like-named read-outs stand apart in the source and are kept apart here.

Experiments:
Test in all cases: KinomeScan kinase profiling
Format in all cases: binding
MAP3K4 = molecular target: T1, MAP3K4 (Homo sapiens, UniProt Q9Y6R4)
T1 construct: purchased Ambit Biosciences (San Diego, Calif.)
Description: (§1) The selectivity of a given CK1δ, CK1ε or CK1δ-CK1ε inhibitor compound can be determined by testing the compound against a panel of known kinases. An example of such a kinase profiling technology is the “KinomeScan” from Ambit Biosciences in which compounds can be screened for their modulatory activities against more than 200 known kinases.

AAK1 = molecular target: T2, AAK1 (Homo sapiens, UniProt Q2M2I8)
T2 construct: purchased Ambit Biosciences (San Diego, Calif.)
Description: as §1

CAMK2D = molecular target: T3, CAMK2D (Homo sapiens, UniProt Q13557)
T3 construct: purchased Ambit Biosciences (San Diego, Calif.)
Description: as §1

CLK1 = molecular target: T4, CLK1 (Homo sapiens, UniProt P49759)
T4 construct: purchased Ambit Biosciences (San Diego, Calif.)
Description: as §1

CAMK1G = molecular target: T5, CAMK1G (Homo sapiens, UniProt Q96NX5)
T5 construct: purchased Ambit Biosciences (San Diego, Calif.)
Description: as §1

LYN = molecular target: T6, LYN (Homo sapiens, UniProt P07948)
T6 construct: purchased Ambit Biosciences (San Diego, Calif.)
Description: as §1

NEK9 = molecular target: T7, NEK9 (Homo sapiens, UniProt Q8TD19)
T7 construct: purchased Ambit Biosciences (San Diego, Calif.)
Description: as §1

EGFR = molecular target: T8, EGFR (Homo sapiens, UniProt P00533)
T8 construct: purchased Ambit Biosciences (San Diego, Calif.)
Description: as §1

FYN = molecular target: T9, FYN (Homo sapiens, UniProt P06241)
T9 construct: purchased Ambit Biosciences (San Diego, Calif.)
Description: as §1

JNK3 = molecular target: T10, JNK3 (Homo sapiens, UniProt P53779)
T10 construct: purchased Ambit Biosciences (San Diego, Calif.)
Description: as §1

ROS1 = molecular target: T11, ROS1 (Homo sapiens, UniProt P08922)
T11 construct: purchased Ambit Biosciences
Description: as §1

TNIK = molecular target: T12, TNIK (Homo sapiens, UniProt Q9UKE5)
T12 construct: purchased Ambit Biosciences
Description: as §1

CSNK1G1 = molecular target: T13, CSNK1G1 (Homo sapiens, UniProt Q9HCP0)
T13 construct: purchased Ambit Biosciences (San Diego, Calif.)
Description: as §1

FES = molecular target: T14, FES (Homo sapiens, UniProt P07332)
T14 construct: purchased Ambit Biosciences (San Diego, Calif.)
Description: as §1

CSK = molecular target: T15, CSK (Homo sapiens, UniProt P41240)
T15 construct: purchased Ambit Biosciences (San Diego, Calif.)
Description: as §1

BLK = molecular target: T16, BLK (Homo sapiens, UniProt P51451)
T16 construct: purchased Ambit Biosciences (San Diego, Calif.)
Description: as §1

PTK2B = molecular target: T17, PTK2B (Homo sapiens, UniProt Q14289)
T17 construct: purchased Ambit Biosciences
Description: as §1

AKT1 = molecular target: T18, AKT1 (Homo sapiens, UniProt P31749)
T18 construct: purchased Ambit Biosciences (San Diego, Calif.)
Description: as §1

CAMK2G = molecular target: T19, CAMK2G (Homo sapiens, UniProt Q13555)
T19 construct: purchased Ambit Biosciences (San Diego, Calif.)
Description: as §1

CAMK2B = molecular target: T20, CAMK2B (Homo sapiens, UniProt Q13554)
T20 construct: purchased Ambit Biosciences (San Diego, Calif.)
Description: as §1

BTK = molecular target: T21, BTK (Homo sapiens, UniProt Q06187)
T21 construct: purchased Ambit Biosciences (San Diego, Calif.)
Description: as §1

MYLK2 = molecular target: T22, MYLK2 (Homo sapiens, UniProt Q9H1R3)
T22 construct: purchased Ambit Biosciences (San Diego, Calif.)
Description: as §1

PDGFRA = molecular target: T23, PDGFRA (Homo sapiens, UniProt P16234)
T23 construct: purchased Ambit Biosciences (San Diego, Calif.)
Description: as §1

PTK2 = molecular target: T24, PTK2 (Homo sapiens, UniProt Q05397)
T24 construct: purchased Ambit Biosciences
Description: as §1

PLK4 = molecular target: T25, PLK4 (Homo sapiens, UniProt O00444)
T25 construct: purchased Ambit Biosciences (San Diego, Calif.)
Description: as §1

FRK = molecular target: T26, FRK (Homo sapiens, UniProt P42685)
T26 construct: purchased Ambit Biosciences (San Diego, Calif.)
Description: as §1

STK11 = molecular target: T27, STK11 (Homo sapiens, UniProt Q15831)
T27 construct: purchased Ambit Biosciences
Description: as §1

CAMK2A = molecular target: T28, CAMK2A (Homo sapiens, UniProt Q9UQM7)
T28 construct: purchased Ambit Biosciences (San Diego, Calif.)
Description: as §1

ERBB2 = molecular target: T29, ERBB2 (Homo sapiens, UniProt P04626)
T29 construct: purchased Ambit Biosciences (San Diego, Calif.)
Description: as §1

BMX = molecular target: T30, BMX (Homo sapiens, UniProt P51813)
T30 construct: purchased Ambit Biosciences (San Diego, Calif.)
Description: as §1

GAK = molecular target: T31, GAK (Homo sapiens, UniProt O14976)
T31 construct: purchased Ambit Biosciences (San Diego, Calif.)
Description: as §1

SRC = molecular target: T32, SRC (Homo sapiens, UniProt P12931)
T32 construct: purchased Ambit Biosciences
Description: as §1

STK16 = molecular target: T33, STK16 (Homo sapiens, UniProt O75716)
T33 construct: purchased Ambit Biosciences
Description: as §1

RIPK2 = molecular target: T34, RIPK2 (Homo sapiens, UniProt O43353)
T34 construct: purchased Ambit Biosciences
Description: as §1

CAMKK1 = molecular target: T35, CAMKK1 (Homo sapiens, UniProt Q8N5S9)
T35 construct: purchased Ambit Biosciences (San Diego, Calif.)
Description: as §1

JAK1(Kin.Dom1) = molecular target: T36, JAK1(Kin.Dom1) (Homo sapiens, UniProt P23458)
T36 construct: JAK1(Kin.Dom1); purchased Ambit Biosciences (San Diego, Calif.)
Description: as §1

CAMK1 = molecular target: T37, CAMK1 (Homo sapiens, UniProt Q14012)
T37 construct: purchased Ambit Biosciences (San Diego, Calif.)
Description: as §1

PIM2 = molecular target: T38, PIM2 (Homo sapiens, UniProt Q9P1W9)
T38 construct: purchased Ambit Biosciences (San Diego, Calif.)
Description: as §1

ERBB4 = molecular target: T39, ERBB4 (Homo sapiens, UniProt Q15303)
T39 construct: purchased Ambit Biosciences (San Diego, Calif.)
Description: as §1

CSNK2A1 = molecular target: T40, CSNK2A1 (Homo sapiens, UniProt P68400)
T40 construct: purchased Ambit Biosciences (San Diego, Calif.)
Description: as §1

T27 sequence (Q15831 whole entry): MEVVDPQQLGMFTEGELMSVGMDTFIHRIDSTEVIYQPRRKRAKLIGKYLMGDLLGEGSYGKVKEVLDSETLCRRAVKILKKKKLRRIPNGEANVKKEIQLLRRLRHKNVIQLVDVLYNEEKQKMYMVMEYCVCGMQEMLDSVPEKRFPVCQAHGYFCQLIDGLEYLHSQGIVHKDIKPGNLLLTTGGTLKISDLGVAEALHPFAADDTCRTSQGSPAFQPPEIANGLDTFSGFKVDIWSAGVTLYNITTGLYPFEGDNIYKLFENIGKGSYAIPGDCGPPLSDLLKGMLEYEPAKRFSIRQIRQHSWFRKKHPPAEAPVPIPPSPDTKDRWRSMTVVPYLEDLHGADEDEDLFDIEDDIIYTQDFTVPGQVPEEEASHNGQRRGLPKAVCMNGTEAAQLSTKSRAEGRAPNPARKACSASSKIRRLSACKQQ
T6 sequence (P07948 whole entry): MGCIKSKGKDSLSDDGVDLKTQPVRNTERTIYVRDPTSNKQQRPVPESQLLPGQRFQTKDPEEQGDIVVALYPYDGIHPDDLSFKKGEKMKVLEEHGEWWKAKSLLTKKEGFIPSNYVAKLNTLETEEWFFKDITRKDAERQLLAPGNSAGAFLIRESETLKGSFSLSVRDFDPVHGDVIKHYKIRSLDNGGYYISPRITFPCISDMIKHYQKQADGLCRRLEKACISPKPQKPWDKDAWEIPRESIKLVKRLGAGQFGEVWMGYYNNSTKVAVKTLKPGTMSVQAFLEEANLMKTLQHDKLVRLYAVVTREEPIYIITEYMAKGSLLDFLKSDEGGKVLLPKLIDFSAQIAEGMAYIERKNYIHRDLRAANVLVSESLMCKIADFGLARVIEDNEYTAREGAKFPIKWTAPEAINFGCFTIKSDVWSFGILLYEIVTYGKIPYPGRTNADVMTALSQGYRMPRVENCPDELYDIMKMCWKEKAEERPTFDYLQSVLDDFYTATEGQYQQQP
T35 sequence (Q8N5S9 whole entry): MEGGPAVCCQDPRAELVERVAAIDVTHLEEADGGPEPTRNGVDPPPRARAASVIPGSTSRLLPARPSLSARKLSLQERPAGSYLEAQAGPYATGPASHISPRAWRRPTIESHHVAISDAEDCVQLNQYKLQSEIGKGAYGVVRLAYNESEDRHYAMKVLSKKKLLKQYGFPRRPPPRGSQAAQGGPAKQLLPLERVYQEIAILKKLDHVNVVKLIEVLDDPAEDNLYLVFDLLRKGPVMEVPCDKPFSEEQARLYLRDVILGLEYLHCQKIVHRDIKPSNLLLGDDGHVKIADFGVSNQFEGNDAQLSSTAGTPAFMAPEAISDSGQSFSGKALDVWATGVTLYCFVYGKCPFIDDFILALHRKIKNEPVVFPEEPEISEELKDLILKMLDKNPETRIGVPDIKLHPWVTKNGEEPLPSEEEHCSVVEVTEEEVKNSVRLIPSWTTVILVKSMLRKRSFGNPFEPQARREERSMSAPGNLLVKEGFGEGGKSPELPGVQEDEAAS
T12 sequence (Q9UKE5 whole entry): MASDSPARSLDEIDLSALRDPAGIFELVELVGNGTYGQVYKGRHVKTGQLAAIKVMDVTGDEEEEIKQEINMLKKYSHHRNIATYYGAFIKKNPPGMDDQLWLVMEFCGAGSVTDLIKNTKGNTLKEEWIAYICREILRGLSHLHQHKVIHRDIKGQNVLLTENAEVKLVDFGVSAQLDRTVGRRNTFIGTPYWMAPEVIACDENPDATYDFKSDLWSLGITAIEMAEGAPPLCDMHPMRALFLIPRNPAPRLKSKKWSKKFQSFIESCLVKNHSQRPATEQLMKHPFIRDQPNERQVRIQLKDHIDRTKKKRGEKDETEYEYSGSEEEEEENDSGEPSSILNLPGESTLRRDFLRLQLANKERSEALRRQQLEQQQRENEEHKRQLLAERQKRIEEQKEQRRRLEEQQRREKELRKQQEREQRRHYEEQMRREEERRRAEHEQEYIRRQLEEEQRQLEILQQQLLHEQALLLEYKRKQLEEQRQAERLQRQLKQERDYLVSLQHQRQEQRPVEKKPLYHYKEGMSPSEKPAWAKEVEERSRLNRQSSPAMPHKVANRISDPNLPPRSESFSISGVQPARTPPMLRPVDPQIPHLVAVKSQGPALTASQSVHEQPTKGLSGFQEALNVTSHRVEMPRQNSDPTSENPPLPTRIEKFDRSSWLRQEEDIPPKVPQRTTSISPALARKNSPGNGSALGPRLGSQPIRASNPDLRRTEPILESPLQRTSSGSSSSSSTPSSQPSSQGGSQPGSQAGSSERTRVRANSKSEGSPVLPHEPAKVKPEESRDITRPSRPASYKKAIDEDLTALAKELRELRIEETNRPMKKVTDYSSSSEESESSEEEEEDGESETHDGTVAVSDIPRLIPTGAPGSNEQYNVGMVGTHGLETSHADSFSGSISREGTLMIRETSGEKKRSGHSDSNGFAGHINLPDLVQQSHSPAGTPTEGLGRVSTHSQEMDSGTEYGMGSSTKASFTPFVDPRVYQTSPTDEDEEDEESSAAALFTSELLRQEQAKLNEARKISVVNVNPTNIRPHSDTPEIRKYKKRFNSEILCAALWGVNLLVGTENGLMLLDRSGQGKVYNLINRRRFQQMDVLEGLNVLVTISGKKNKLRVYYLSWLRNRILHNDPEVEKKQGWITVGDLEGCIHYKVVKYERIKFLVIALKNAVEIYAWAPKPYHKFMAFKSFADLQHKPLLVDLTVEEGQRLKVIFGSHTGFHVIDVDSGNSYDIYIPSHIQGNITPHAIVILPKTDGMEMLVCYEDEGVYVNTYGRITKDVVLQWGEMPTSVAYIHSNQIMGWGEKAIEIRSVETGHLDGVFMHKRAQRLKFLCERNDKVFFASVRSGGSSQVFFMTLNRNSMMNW
T21 sequence (Q06187 whole entry): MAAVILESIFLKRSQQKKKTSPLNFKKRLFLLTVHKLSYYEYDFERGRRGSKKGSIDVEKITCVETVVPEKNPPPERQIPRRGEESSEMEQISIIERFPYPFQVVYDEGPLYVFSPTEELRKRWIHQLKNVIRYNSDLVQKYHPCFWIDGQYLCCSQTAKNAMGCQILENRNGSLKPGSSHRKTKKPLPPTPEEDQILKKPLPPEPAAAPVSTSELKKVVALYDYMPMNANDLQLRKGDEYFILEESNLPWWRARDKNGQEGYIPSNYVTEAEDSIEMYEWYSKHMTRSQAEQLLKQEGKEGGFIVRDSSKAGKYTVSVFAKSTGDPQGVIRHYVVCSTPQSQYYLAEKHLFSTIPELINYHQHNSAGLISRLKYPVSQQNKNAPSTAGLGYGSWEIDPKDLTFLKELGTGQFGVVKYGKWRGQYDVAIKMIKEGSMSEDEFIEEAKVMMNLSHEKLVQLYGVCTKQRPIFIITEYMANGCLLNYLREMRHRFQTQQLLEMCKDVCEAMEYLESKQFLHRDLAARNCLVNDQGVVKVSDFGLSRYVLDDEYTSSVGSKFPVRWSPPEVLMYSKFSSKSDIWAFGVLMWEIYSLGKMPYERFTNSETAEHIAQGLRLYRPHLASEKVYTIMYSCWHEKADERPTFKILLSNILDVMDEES
T32 sequence (P12931 whole entry): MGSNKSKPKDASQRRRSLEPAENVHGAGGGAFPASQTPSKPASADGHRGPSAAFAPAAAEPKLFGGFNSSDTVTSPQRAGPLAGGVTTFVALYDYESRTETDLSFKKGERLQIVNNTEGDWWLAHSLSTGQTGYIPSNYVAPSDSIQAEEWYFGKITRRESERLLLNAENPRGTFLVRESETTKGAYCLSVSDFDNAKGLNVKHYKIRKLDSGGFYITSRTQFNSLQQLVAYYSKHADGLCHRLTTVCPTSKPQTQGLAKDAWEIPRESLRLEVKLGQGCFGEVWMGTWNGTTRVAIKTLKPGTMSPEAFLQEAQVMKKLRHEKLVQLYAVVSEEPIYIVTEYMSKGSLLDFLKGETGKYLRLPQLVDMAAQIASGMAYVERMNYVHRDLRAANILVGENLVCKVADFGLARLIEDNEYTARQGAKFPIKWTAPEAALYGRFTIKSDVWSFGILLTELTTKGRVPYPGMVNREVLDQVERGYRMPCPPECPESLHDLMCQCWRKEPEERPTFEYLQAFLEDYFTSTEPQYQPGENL
T19 sequence (Q13555 whole entry): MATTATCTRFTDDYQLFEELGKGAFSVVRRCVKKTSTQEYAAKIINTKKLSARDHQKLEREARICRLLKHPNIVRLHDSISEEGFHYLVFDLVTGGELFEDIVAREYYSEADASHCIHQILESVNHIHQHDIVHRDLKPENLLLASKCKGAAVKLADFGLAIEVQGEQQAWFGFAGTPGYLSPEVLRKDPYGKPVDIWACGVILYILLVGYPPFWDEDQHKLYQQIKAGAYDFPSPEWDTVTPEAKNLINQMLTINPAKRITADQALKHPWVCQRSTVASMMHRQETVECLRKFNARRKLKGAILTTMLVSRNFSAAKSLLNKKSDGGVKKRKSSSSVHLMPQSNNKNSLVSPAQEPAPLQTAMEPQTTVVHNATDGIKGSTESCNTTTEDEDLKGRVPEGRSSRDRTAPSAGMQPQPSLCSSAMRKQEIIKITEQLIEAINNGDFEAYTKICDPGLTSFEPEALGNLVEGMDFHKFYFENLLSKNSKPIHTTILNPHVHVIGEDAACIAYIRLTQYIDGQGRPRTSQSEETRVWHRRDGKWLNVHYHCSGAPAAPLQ
T38 sequence (Q9P1W9 whole entry): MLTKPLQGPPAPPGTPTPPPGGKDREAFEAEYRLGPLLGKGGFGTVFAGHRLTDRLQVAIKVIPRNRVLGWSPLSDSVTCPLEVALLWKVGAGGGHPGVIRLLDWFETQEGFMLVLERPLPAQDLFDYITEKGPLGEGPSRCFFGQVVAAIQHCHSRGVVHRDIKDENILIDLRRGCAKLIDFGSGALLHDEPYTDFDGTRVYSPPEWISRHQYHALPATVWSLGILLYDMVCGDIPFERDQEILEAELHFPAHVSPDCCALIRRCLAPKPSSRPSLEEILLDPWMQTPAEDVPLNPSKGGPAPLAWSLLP

| Structure (SMILES) | inhibition at 10 µM (MAP3K4) [%] | inhibition at 10 µM (AAK1) [%] | inhibition at 10 µM (CAMK2D) [%] | inhibition at 10 µM (CLK1) [%] | inhibition at 10 µM (CAMK1G) [%] | inhibition at 10 µM (LYN) [%] | inhibition at 10 µM (NEK9) [%] | inhibition at 10 µM (EGFR) [%] | inhibition at 10 µM (FYN) [%] | inhibition at 10 µM (JNK3) [%] | inhibition at 10 µM (ROS1) [%] | inhibition at 10 µM (TNIK) [%] | inhibition at 10 µM (FES) [%] | inhibition at 10 µM (CSK) [%] | inhibition at 10 µM (BLK) [%] | inhibition at 10 µM (PTK2B) [%] | inhibition at 10 µM (AKT1) [%] | inhibition at 10 µM (CAMK2G) [%] | inhibition at 10 µM (CAMK2B) [%] | inhibition at 10 µM (BTK) [%] | also measured |
| --- | --- | --- | --- | --- | --- | --- | --- | --- | --- | --- | --- | --- | --- | --- | --- | --- | --- | --- | --- | --- | --- |
| NC(=O)c1ccc(-c2nc(-c3ccc4c(c3)OCO4)c(-c3ccccn3)[nH]2)cc1 [SB431542, 4-(4-benzo-[1,3]dioxol-5-yl-5-pyridin-2-yl-1H-imidazol-2-yl)benzamide] | < 50 | < 50 | < 50 | < 50 | < 50 | < 50 | < 50 | < 50 | < 50 | < 50 | < 50 | < 50 | < 50 | < 50 | < 50 | < 50 | < 50 | < 50 | < 50 | < 50 | inhibition at 10 µM (CSNK1G1; 10 μM, CSNK1G1, read-out: % Inhibition): < 50%; inhibition at 10 µM (MYLK2): < 50%; inhibition at 10 µM (PDGFRA): < 50%; inhibition at 10 µM (PTK2): < 50%; inhibition at 10 µM (PLK4): < 50%; inhibition at 10 µM (FRK): < 50%; inhibition at 10 µM (STK11): < 50%; inhibition at 10 µM (CAMK2A): < 50%; inhibition at 10 µM (ERBB2): < 50%; inhibition at 10 µM (BMX): < 50%; inhibition at 10 µM (GAK): < 50%; inhibition at 10 µM (SRC): < 50%; inhibition at 10 µM (STK16): < 50%; inhibition at 10 µM (RIPK2): < 50%; inhibition at 10 µM (CAMKK1): < 50%; inhibition at 10 µM (JAK1(Kin.Dom1)): < 50%; inhibition at 10 µM (CAMK1): < 50%; inhibition at 10 µM (PIM2): < 50%; inhibition at 10 µM (ERBB4): < 50%; inhibition at 10 µM (CSNK2A1): < 50% |
| NC(=O)c1ccc(-c2nc(-c3ccc4c(c3)OCCO4)c(-c3ccccn3)[nH]2)cc1 [D4476, 4-[4-(2,3-Dihydro-benzo[1,4]dioxin-6-yl)-5-pyridin-2-yl-1H-imidazol-2-yl]benzamide] | < 50 | < 50 | < 50 | < 50 | < 50 | < 50 | < 50 | < 50 | < 50 | < 50 | < 50 | < 50 | < 50 | < 50 | < 50 | < 50 | < 50 | < 50 | < 50 | < 50 | inhibition at 10 µM (CSNK1G1): < 50%; inhibition at 10 µM (MYLK2): < 50%; inhibition at 10 µM (PDGFRA): < 50%; inhibition at 10 µM (PTK2): < 50%; inhibition at 10 µM (PLK4): < 50%; inhibition at 10 µM (FRK): < 50%; inhibition at 10 µM (STK11): < 50%; inhibition at 10 µM (CAMK2A): < 50%; inhibition at 10 µM (ERBB2): < 50%; inhibition at 10 µM (BMX): < 50%; inhibition at 10 µM (GAK): < 50%; inhibition at 10 µM (SRC): < 50%; inhibition at 10 µM (STK16): < 50%; inhibition at 10 µM (RIPK2): < 50%; inhibition at 10 µM (CAMKK1): < 50%; inhibition at 10 µM (JAK1(Kin.Dom1)): < 50%; inhibition at 10 µM (CAMK1): < 50%; inhibition at 10 µM (PIM2): < 50%; inhibition at 10 µM (ERBB4): < 50%; inhibition at 10 µM (CSNK2A1): < 50% |
